Measurements taken from PubChem BioAssay AID2060609 (Molecular Pharmacology Branch, DTP, NCI, 2025).

Tested on: 855422-203-R-J1-PDC complex spheroids, viability
Test: Anticancer human tumor 855422-203-R-J1-PDC patient-derived bladder carcinoma cell line growth inhibition [CLK]
Details: for IC50: curve of first compound; for viability, T/C: stronger effect = lower value; active means viability on the fitted dose curve at most 10% of control; inactive means the rest
Outline: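 Patient-derived tumor cells grown as complex spheroids with HUVEC endothelial cells and mesenchymal stem cells, treated with drug combinations. Concentrations descend in half-log steps from near clinical Cmax, or from 10 microM if Cmax unknown.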

[1] = second compound 0.0316 µM, first compound 0.0316 µM
[2] = second compound 0.0316 µM, first compound 0.1 µM
[3] = second compound 0.1 µM, first compound 0.0316 µM
[4] = second compound 0.1 µM, first compound 0.1 µM
[5] = second compound 0.316 µM, first compound 0.0316 µM
[6] = second compound 0.316 µM, first compound 0.1 µM
[7] = second compound 1 µM, first compound 0.0316 µM
[8] = second compound 1 µM, first compound 0.1 µM
[9] = second compound 3.16 µM, first compound 0.0316 µM
[10] = second compound 3.16 µM, first compound 0.1 µM
[11] = second compound 10 µM, first compound 0.0316 µM
[12] = second compound 10 µM, first compound 0.1 µM
[13] = second compound 0.0316 µM, first compound 0.316 µM
[14] = second compound 0.0316 µM, first compound 1 µM
[15] = second compound 0.0316 µM, first compound 3.16 µM
[16] = second compound 0.0316 µM, first compound 10 µM
[17] = second compound 0.1 µM, first compound 0.316 µM
[18] = second compound 0.1 µM, first compound 1 µM
[19] = second compound 0.1 µM, first compound 3.16 µM
[20] = second compound 0.1 µM, first compound 10 µM
[21] = second compound 0.316 µM, first compound 0.316 µM
[22] = second compound 0.316 µM, first compound 1 µM
[23] = second compound 0.316 µM, first compound 3.16 µM
[24] = second compound 0.316 µM, first compound 10 µM
[25] = second compound 1 µM, first compound 0.316 µM
[26] = second compound 1 µM, first compound 1 µM
[27] = second compound 1 µM, first compound 3.16 µM
[28] = second compound 1 µM, first compound 10 µM
[29] = second compound 3.16 µM, first compound 0.316 µM
[30] = second compound 3.16 µM, first compound 1 µM
[31] = second compound 3.16 µM, first compound 3.16 µM
[32] = second compound 3.16 µM, first compound 10 µM
[33] = second compound 10 µM, first compound 0.316 µM
[34] = second compound 10 µM, first compound 1 µM
[35] = second compound 10 µM, first compound 3.16 µM
[36] = second compound 10 µM, first compound 10 µM
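Further: spheroids exposed to drugs for seven days before readout.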
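Wherever viability, T/C is given: 100% = DMSO vehicle control wells.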

Cn1ncnc1[C@H]1c2n[nH]c(=O)c3cc(F)cc(c23)N[C@@H]1c1ccc(F)cc1 + CNC(=O)c1ccc(Nc2nc(OC3CCCC3)c3c(-c4ccc5nc(C)oc5c4)c[nH]c3n2)c(OC)c1
36 nM: IC50 (second compound 0.1 µM)
inactive: viability, T/C (second compound 0.0316 µM, first compound 0.000316 µM) 118% | viability, T/C (second compound 0.0316 µM, first compound 0.001 µM) 102% | viability, T/C (second compound 0.0316 µM, first compound 0.00316 µM) 126% | viability, T/C (second compound 0.0316 µM, first compound 0.01 µM) 109% | viability, T/C [1] 102% | viability, T/C [2] 110% | viability, T/C (second compound 0.1 µM, first compound 0.000316 µM) 57.1% | viability, T/C (second compound 0.1 µM, first compound 0.001 µM) 59.4% | viability, T/C (second compound 0.1 µM, first compound 0.00316 µM) 45.4% | viability, T/C (second compound 0.1 µM, first compound 0.01 µM) 66.2% | viability, T/C [3] 43.5% | viability, T/C [4] 47.3% | viability, T/C (second compound 0.316 µM, first compound 0.000316 µM) 19.1% | viability, T/C (second compound 0.316 µM, first compound 0.001 µM) 22.2% | viability, T/C (second compound 0.316 µM, first compound 0.00316 µM) 20.5% | viability, T/C (second compound 0.316 µM, first compound 0.01 µM) 24.7% | viability, T/C [5] 24.2% | viability, T/C [6] 21.5% | viability, T/C (second compound 1 µM, first compound 0.000316 µM) 21% | viability, T/C (second compound 1 µM, first compound 0.001 µM) 17.4% | viability, T/C (second compound 1 µM, first compound 0.00316 µM) 18% | viability, T/C (second compound 1 µM, first compound 0.01 µM) 18.8% | viability, T/C [7] 18.4% | viability, T/C [8] 18.2% | viability, T/C (second compound 3.16 µM, first compound 0.000316 µM) 17.9% | viability, T/C (second compound 3.16 µM, first compound 0.001 µM) 17.6% | viability, T/C (second compound 3.16 µM, first compound 0.00316 µM) 22.1% | viability, T/C (second compound 3.16 µM, first compound 0.01 µM) 18.5% | viability, T/C [9] 21.7% | viability, T/C [10] 19.3% | viability, T/C (second compound 10 µM, first compound 0.000316 µM) 20.3% | viability, T/C (second compound 10 µM, first compound 0.001 µM) 21.9% | viability, T/C (second compound 10 µM, first compound 0.00316 µM) 19.2% | viability, T/C (second compound 10 µM, first compound 0.01 µM) 22% | viability, T/C [11] 18% | viability, T/C [12] 15.5%
< 0.316 nM: IC50 (second compound 0.316 µM) | IC50 (second compound 1 µM) | IC50 (second compound 3.16 µM) | IC50 (second compound 10 µM)
> 100 nM: IC50 (second compound 0.0316 µM)

Nc1ccn(C2OC(CO)C(O)C2(F)F)c(=O)n1 (stereo unspecified) + CNC(=O)c1ccc(Nc2nc(OC3CCCC3)c3c(-c4ccc5nc(C)oc5c4)c[nH]c3n2)c(OC)c1
inactive: viability, T/C [1] 26.9% | viability, T/C [2] 13.1% | viability, T/C [13] 13% | viability, T/C [3] 17.3% | viability, T/C [4] 12.1% | viability, T/C [17] 12.5% | viability, T/C [5] 17.4% | viability, T/C [6] 12.8% | viability, T/C [21] 12% | viability, T/C [7] 18.6% | viability, T/C [8] 21.8% | viability, T/C [25] 12.8% | viability, T/C [26] 10.1% | viability, T/C [9] 19.4% | viability, T/C [10] 16.6% | viability, T/C [29] 14.9% | viability, T/C [30] 10.2% | viability, T/C [11] 19.3% | viability, T/C [12] 16.4% | viability, T/C [33] 14.1% | viability, T/C [34] 9.84%
active: viability, T/C [14] 8.48% | viability, T/C [15] 8.78% | viability, T/C [16] 6.08% | viability, T/C [18] 11.8% | viability, T/C [19] 7.27% | viability, T/C [20] 5.69% | viability, T/C [22] 10.3% | viability, T/C [23] 5.76% | viability, T/C [24] 5.3% | viability, T/C [27] 9.02% | viability, T/C [28] 6.99% | viability, T/C [31] 8.27% | viability, T/C [32] 6.69% | viability, T/C [35] 10.5% | viability, T/C [36] 5.99%
< 31.6 nM: IC50 (second compound 0.0316 µM) | IC50 (second compound 0.1 µM) | IC50 (second compound 0.316 µM) | IC50 (second compound 1 µM) | IC50 (second compound 3.16 µM) | IC50 (second compound 10 µM)

O=c1[nH]cc(F)c(=O)[nH]1 + CNC(=O)c1ccc(Nc2nc(OC3CCCC3)c3c(-c4ccc5nc(C)oc5c4)c[nH]c3n2)c(OC)c1
< 31.6 nM: IC50 (second compound 0.316 µM) | IC50 (second compound 1 µM) | IC50 (second compound 3.16 µM) | IC50 (second compound 10 µM)
inactive: viability, T/C [1] 135% | viability, T/C [2] 119% | viability, T/C [13] 98.4% | viability, T/C [14] 72.3% | viability, T/C [15] 67.5% | viability, T/C [16] 47.9% | viability, T/C [3] 65.5% | viability, T/C [4] 65.7% | viability, T/C [17] 56.4% | viability, T/C [18] 40.3% | viability, T/C [19] 40.8% | viability, T/C [20] 44.9% | viability, T/C [5] 26.4% | viability, T/C [6] 22.8% | viability, T/C [21] 22.1% | viability, T/C [22] 18.4% | viability, T/C [23] 19.7% | viability, T/C [24] 18.9% | viability, T/C [7] 23.3% | viability, T/C [8] 23.9% | viability, T/C [25] 27.6% | viability, T/C [26] 17.3% | viability, T/C [27] 14.5% | viability, T/C [28] 17.9% | viability, T/C [9] 25.1% | viability, T/C [10] 23.8% | viability, T/C [29] 22.1% | viability, T/C [30] 16.3% | viability, T/C [31] 12.7% | viability, T/C [32] 14.7% | viability, T/C [11] 21.5% | viability, T/C [12] 23.3% | viability, T/C [33] 20.2% | viability, T/C [34] 17.9% | viability, T/C [35] 14.7% | viability, T/C [36] 13.6%
9090 nM: IC50 (second compound 0.0316 µM)
527 nM: IC50 (second compound 0.1 µM)
